Experimental data published in patent US20260083697A1, “COMPOSITION AND USE OF SAME FOR CONTROLLING INFECTIONS IN AQUATIC ORGANISMS” (priority 2022, published 2026).

Key:
[1] = test system: fish; test: Toxicity of commercial fatty acid ethyl esters to fish over 48 h; format: in vivo; settings: at least 48 h
[2] = test system: Gyrodactylus turnbulli; format: cell-based; settings: for antiparasitic activity of pure commercial ethyl ester: commercial ethyl ester form, Kolliphor and sonication
Text: FIGS. 2A-2C include graphs showing antiparasitic effect of residue extract and preparations (FFA & FAEE) with and without the addition of the food-grade detergent Kolliphor (K) and sonication(S) prior to analysis. […] Gyrodactylus turnbulli was exposed to the following preparations: (2A) residue extract (RE) and RE with Kolliphor and sonication (RE-K-S); (2B) FFA and FFA with Kolliphor and sonication (FFA-K-S); and (2C) FAEE with Kolliphor and sonication (FAEE-K-S). The numbers represent the tested concentrations of the solution applied at μL mL^−1. n=3 wells with at least five observed parasites per well.
FIG. 5 includes a vertical bar graph showing dose-dependent antiparasitic effect of fatty acids in their ethyl ester form as tested in situ. Selected were the four FAs that appeared at the highest level in the residue and its extracts and preparations, as pure commercial compounds: myristic acid (14:0), palmitic acid (16:0), palmitoleic acid (16:1n7), and EPA (20:5n3). The analysis was carried out with the addition of Kolliphor (K) and sonication (S). Time to reach 50% parasite mortality was recorded.
FIG. 11A-11B include graphs showing in-situ antiparasitic effect against Gyrodactylus by commercial FAEEs. Gyrodactylus was exposed by commercial FAEEs at 18.75, 37.5, and 75 μM along with addition of 1% Kolliphor (K) and sonication(S).
An in-situ assay was carried out, as described previously (Kim et al., 2021). Briefly, infected guppies (as confirmed by observation under a stereomicroscope (Richards and Chubb 1996)) were anesthetized with 250 ppm of Sedanol (Stockton-Aquamor Ltd., Israel) (Zorin et al., 2019) followed by euthanasia (brain pithing). Tail fin clips with more than four parasites were excised and transferred, using watchmaker's forceps, to a single well of a 24-well plate containing standardized water (STW: dechlorinated tap water with Na2S2O3 at 0.37 mg L^−1 followed by autoclaving). Ethanol and STW, as well as the relevant solvents and preparation protocol used for extraction, were used as negative controls in each trial. Parasites were observed under an inverted microscope (Axiovert 40 CFL, Carl Zeiss AG) for 4 h, at intervals ranging from 5 to 30 min, during which detached and dead parasites were recorded. A total of 12-15 parasites (with three replicates) were analyzed for each treatment concentration.
Residue extract and preparations were tested at the following concentrations: residue extract at 2.5, 5 and 10 μL mL^−1, and FFA and FAEE at 2.5 and 5 μL mL^−1 (in ethanol). Selected pure active compounds were analyzed, based on the analysis of the FAEE composition. These included the ethyl esters of the following fatty acids: myristic acid (14:0), palmitic acid (16:0), palmitoleic acid (16:1n7), and EPA ([…]) (obtained from Nu-Check, USA). Tested concentrations were calculated based on the amount of active compound in the FA profile of ethyl esters according to the GC-results.

Compound | toxicity to fish ([1]; 7.3 μM to 14.5 μM) | antiparasitic activity of pure commercial ethyl ester [2] | other results
CCCCCCCCC(=O)OCC [9:0, ethyl nonanoate] | – | – | toxicity to fish ([1]; 18.75 μM to 37.5 μM): non-toxic
CCCCCCCCCC(=O)OCC [10:0, ethyl decanoate] | – | – | toxicity to fish ([1]; 18.75 μM to 37.5 μM): non-toxic
CCCCCCCCCCCC(=O)OCC [12:0, ethyl laurate] | – | – | toxicity to fish ([1]; 9.375 μM to 37.5 M): non-toxic
CCCCCCCCCCCCCC(=O)OCC [14:0, ethyl myristate] | non-toxic | activity | –
CCCCCCCCCCCCCCCC(=O)OCC [16:0, ethyl palmitate] | non-toxic | activity | –
CCCCC/C=C\C/C=C\CCCCCCCC(=O)OCC [18:2n6, ethyl linoleate] | non-toxic | – | –
CC/C=C\C/C=C\C/C=C\CCCCCCCC(=O)OCC [18:3n3, ethyl alpha linolenate] | non-toxic | – | –
CCCCC/C=C\C/C=C\C/C=C\CCCCC(=O)OCC [18:3n6, ethyl gamma linolenate] | non-toxic | – | –
CC/C=C\C/C=C\C/C=C\C/C=C\C/C=C\CCCC(=O)OCC [20:5n3] | non-toxic | activity | effect on the parasite at low concentrations ([2]; 3 and 6 μL mL^−1): inducing parasite mortality; dose dependence of antiparasitic effect ([2]; 3 to 24 μL mL^−1): dose-dependent effect; relative activity (time to 50% parasite mortality) ([2]; 12 and 24 μL mL^−1, compared with the other three FAEEs): most active
